Test results: patent US20250082781A1, “METHODS OF LOWERING BLOOD GLUCOSE AND TREATING TYPE 2 DIABETES BY ACTIVATION OF PDE4D3” (Salk Institute for Biological Studies, priority 2021, published 2025)

Tests used:
blood glucose levels [1] = assay: Blood glucose levels in ob/ob mice; assay type: in vivo, mouse; conditions: ad lib fed ob/ob mice, atglistatin 120 mg/kg p.o
Method: (§1) Mice were kept in 12 h light/dark cycle in a temperature-controlled environment. Mice had free access to food and water unless noted otherwise. C57/B6 mice background was used unless noted otherwise. C57BL/6J and ob/ob (000632-B6. Cg-Lepob/J) male mice were obtained from Jackson Laboratory. PDE4D knock-out mice (034588-UCD) were obtained from MMRRC. For diet-induced obesity (DIO) studies, mice were fed a high fat diet (HFD) (60% fat, F3282; Bio-Serv) for minimum of 12 weeks to induce insulin resistance when diet-induced obese model is used. Insulin levels and blood glucose levels were monitored to confirm insulin resistance. To generate adipose-specific FGFR1 deletion, adiponectin-cre mice (B6; FVB-Tg (Adipoq-cre)1Evdr/J; Stock: 010803) were crossed to Fgfr1 flox/flox (B6.129S4-Fgfr1tm5.1Sor/J; Stock: 00767) mice. For AAV mediated expression of target proteins in adipose tissue, 5×10E+11 genomic copies of AAV were injected via tail vein or retro-orbital route.
(§2) Recombinant FGF1 (rFGF1) was dissolved in phosphate-buffered saline (PBS) at a concentration of 0.2 mg/ml and was injected subcutaneously at a 0.5 mg kg^−1 dose. Blood glucose was monitored at indicated time points after injection. For initial measurements (2-4 h) food was removed after injection to exclude any indirect effects stemming from anorexigenic effects of FGF1. PDE4 inhibitor roflumilast stock in DMSO was diluted at 1 mg/ml in 30% captisol, pH 10 and delivered to mice thorough oral gavage at 5 mg kg^−1 dose. PDE3 inhibitor cilostamide stock in DMSO was diluted at 2 mg/ml in 30% captisol and delivered through intraperitoneal injection at 10 mg kg^−1 dose.

blood glucose levels [2] = assay: Blood glucose levels in DIO mice; assay type: in vivo, mouse; conditions: roflumilast 5 mg/kg p.o.
Method: as §1, §2

[3] = Serum insulin levels in DIO mice; assay type: in vivo, mouse; conditions: ad lib fed DIO mice, roflumilast 5 mg/kg p.o., 1 h
Method: as §1
Recombinant FGF1 (rFGF1) was dissolved in phosphate-buffered saline (PBS) at a concentration of 0.2 mg/ml and was injected subcutaneously at a 0.5 mg kg^−1 dose. Blood glucose was monitored at indicated time points after injection. For initial measurements (2-4 h) food was removed after injection to exclude any indirect effects stemming from anorexigenic effects of FGF1. […]

serum FFA levels = assay: Serum FFA levels in DIO mice; assay type: in vivo, mouse; conditions: ad lib fed DIO mice, roflumilast 5 mg/kg p.o., 1 h
Method: as §1, §2

[4] = system: HSL phosphorylation at S660; assay: Western blot of pHSL-S660 in 3T3-L1 adipocytes; assay type: cell-based; conditions: basal and ISO-stimulated cells, roflumilast 2 μM
Method: Tissues were lysed in cold lysis buffer (50 mM Tris, pH 7.5, 150 mM NaCl, 1% NP40, 0.5% NaDoc, 0.1% SDS, 5% glycerol, 1 mM EDTA, protease and phosphatase inhibitors (complete and PhosSTOP (Roche)) by homogenization by bead-beater for 30 s. Samples were cleared for 10 min at 18,000 g at 4° C. and the middle clear phase was transferred to new tubes. A second 30 min centrifugation was performed and the middle clear phase was transferred to new tubes. Five ul protein extract was used for BCA assay to determine protein concentration. Samples were boiled in Laemmli buffer. SDS-PAGE and blotting were performed using gradient gels and Trans-Blot Turbo Transfer System (Bio-Rad). Antibodies used were PDE4D (12918-1-AP, Proteintech), pHSL-660 (4126S, Cell signaling), HSL (4107S, Cell Signaling), tubulin (CP06, Millipore Sigma), and GFP (A01388, GenScript). PDE4D3-pS44 phospho-specific antibody was generated using PDE4D3-S44 FRRHpSWISFDVDNGTSAGR peptide (SEQ ID NO: 20) (Mackenzie et al., 2002) by Pocono Rabbit Farm, using 70-day rabbit antibody production protocol and purified via affinity purification. Primary antibodies were incubated for 2 h at room temperature (RT) or overnight (ON) at 4° C. Blots were developed using SuperSignal West Pico PLUS Chemiluminescent Substrate (ThermoFisher Scientific) and imaged with BioRad GelDoc system.

[5] = biological target: FGFR1 on mouse adipocytes (mouse) (UniProt P16092); assay: cell-based or functional assay
Sequence of UniProt P16092 (P16092 22-822): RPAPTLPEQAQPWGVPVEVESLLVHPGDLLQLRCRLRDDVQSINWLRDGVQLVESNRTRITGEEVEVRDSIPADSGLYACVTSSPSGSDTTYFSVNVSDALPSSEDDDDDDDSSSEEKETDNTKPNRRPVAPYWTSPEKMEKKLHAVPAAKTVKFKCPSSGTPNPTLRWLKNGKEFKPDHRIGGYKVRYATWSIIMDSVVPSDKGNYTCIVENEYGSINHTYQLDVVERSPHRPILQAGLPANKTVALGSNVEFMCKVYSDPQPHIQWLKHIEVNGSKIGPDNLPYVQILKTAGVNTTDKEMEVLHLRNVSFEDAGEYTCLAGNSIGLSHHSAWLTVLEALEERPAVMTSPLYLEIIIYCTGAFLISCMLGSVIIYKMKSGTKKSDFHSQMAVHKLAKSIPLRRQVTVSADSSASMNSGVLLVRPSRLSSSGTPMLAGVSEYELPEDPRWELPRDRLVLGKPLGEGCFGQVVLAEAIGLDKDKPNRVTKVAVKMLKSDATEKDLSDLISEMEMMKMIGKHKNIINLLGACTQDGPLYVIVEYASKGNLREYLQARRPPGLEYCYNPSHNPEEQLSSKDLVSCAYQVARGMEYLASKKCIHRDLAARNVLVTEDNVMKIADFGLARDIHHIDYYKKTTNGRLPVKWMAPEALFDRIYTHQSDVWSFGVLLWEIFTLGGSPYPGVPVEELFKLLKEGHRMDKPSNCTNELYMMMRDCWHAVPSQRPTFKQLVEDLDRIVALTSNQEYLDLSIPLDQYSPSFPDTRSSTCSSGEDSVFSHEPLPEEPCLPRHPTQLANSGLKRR

[6] = biological target: T1, GFP-tagged perilipin (perilipin-GFP), Q8CGN5
T1 chain: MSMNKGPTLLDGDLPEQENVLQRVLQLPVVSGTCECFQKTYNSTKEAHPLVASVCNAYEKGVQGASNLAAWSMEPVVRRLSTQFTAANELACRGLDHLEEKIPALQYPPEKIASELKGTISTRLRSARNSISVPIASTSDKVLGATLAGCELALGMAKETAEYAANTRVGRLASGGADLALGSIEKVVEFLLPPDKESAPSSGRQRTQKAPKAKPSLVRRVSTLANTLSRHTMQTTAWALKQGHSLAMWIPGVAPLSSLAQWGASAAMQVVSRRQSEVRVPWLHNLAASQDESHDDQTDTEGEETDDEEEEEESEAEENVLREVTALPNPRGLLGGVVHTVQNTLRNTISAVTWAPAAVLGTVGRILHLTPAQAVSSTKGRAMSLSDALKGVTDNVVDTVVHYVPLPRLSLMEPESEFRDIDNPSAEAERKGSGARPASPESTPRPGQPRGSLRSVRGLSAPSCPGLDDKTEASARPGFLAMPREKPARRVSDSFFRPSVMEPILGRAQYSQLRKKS

In the case of `CN(C)C(=O)Nc1cccc(-c2ccc(N(C)C)cc2)c1` [Atglistatin, reference compound], the blood glucose levels (blood glucose levels [1]) is reported as “rapidly lowered blood glucose levels”.

For `O=C(Nc1c(Cl)cncc1Cl)c1ccc(OC(F)F)c(OCC2CC2)c1` [roflumilast, reference compound], the blood glucose (blood glucose levels [2]; ad lib fed DIO mice) was “transiently increased”, the blood glucose levels (blood glucose levels [2]; fasted DIO mice) was “more sustained increase in blood glucose levels” and the insulin levels [3] was “transiently increased”. The “serum FFA” value (serum FFA levels) was “transiently increased” and the “ability of FGF1 to suppress HSL phosphorylation in presence of roflumilast” value [4] was “lost”.

In the case of Recombinant FGF1 (rFGF1) (ligand), the serum FFA levels in DIO adR1WT and adR1KO mice [5] is reported as 30%.

B1: mCherry-tagged HSL (HSL-mCherry) (protein)
chain: MDLRTMTQSLVTLAEDNMAFFSSQGPGETARRLSNVFAGVREQALGLEPTLGQLLGVAHHFDLDTETPANGYRSLVHTARCCLAHLLHKSRYVASNRKSIFFRASHNLAELEAYLAALTQLRAMAYYAQRLLTINRPGVLFFEGDEGLTADFLQEYVTLHKGCFYGRCLGFQFTPAIRPFLQTLSIGLVSFGEHYKRNETGLSVTASSLFTGGRFAIDPELRGAEFERIIQNLDVHFWKAFWNITEIEVLSSLANMASTTVRVSRLLSLPPEAFEMPLTSDPRLTVTISPPLAHTGPAPVLARLISYDLREGQDSKVLNSLAKSEGPRLELRPRPHQAPRSRALVVHIHGGGFVAQTSKSHEPYLKNWAQELGVPIFSIDYSLAPEAPFPRALEECFFAYCWAVKHCDLLGSTGERICLAGDSAGGNLCITVSLRAAAYGVRVPDGIMAAYPVTTLQSSASPSRLLSLMDPLLPLSVLSKCVSAYSGTEAEDHFDSDQKALGVMGLVQRDTSLFLRDLRLGASSWLNSFLELSGRKPQKTTSPTAESVRPTESMRRSVSEAALAQPEGLLGTDTLKKLTIKDLSNSEPSDSPEMSQSMETLGPSTPSDVNFFLRPGNSQEEAEAKDEVRPMDGVPRVRAAFPEGFHPRRSSQGVLHMPLYTSPIVKNPFMSPLLAPDSMLKTLPPVHLVACALDPMLDDSVMFARRLRDLGQPVTLKVVEDLPHGFLSLAALCRETRQATEFCVQRIRLILTPPAAPLN
For B1, the “co-localization of perilipin-GFP and HSL-mCherry in live 3T3-L1 adipocytes (fluorescence overlap, confocal microscopy)” value [6] was “FGF1 reduced the isoproterenol-induced co-localization of perilipin-GFP and HSL-mCherry”.
